Source: patent US20170184612A1, “USE OF LEUKOCYTES AND NOVEL BIOMARKERS IN THE DIAGNOSIS, CONFIRMATION, AND TREATMENT OF A NEUROLOGICAL DISORDER” (The Trustees of Columbia University in the City of New York, priority 2014, published 2017)

Experiments:
[1] = test system: peripheral blood mononuclear cells (PBMC), T cells; experiment: ELISpot assay, gamma-interferon release (SFC) after stimulation with a-synuclein epitope pools; format: cell-based, human; conditions: for IFNg Peptide + (donors positive to the peptide): of donors tested (peptide); for Pool +: IFNg, Pool Stimulated, number of donors with a positive response, Donors tested 1; for IFNg Peptide +: number of donors positive to the single peptide
Summary of the method: (§1)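 Ficoll-isolated PBMC from PD patients and age-matched controls were stimulated 22 h at 37 °C with pools of candidate α-syn class I/II and phospho-S129 epitopes, then deconvoluted to single epitopes in responders. IFNγ and IL-5 spot-forming cells were counted colorimetrically, with ≥20 SFC per million cells counted as a response.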

[2] = test system: peripheral blood mononuclear cells (PBMC), T cells; experiment: ELISpot assay, IL-5 release (SFC) after stimulation with a-synuclein epitope pools; format: cell-based, human; conditions: for IL-g Peptide + (donors positive to the peptide): of donors tested (peptide); for IL-g Peptide +: number of donors positive to the single peptide
Summary of the method: as §1

[3] = Patients Summary, PD patients, single peptide
[4] = second 'Pool Stimulated' section (from r296), 12 donors tested
[5] = peptide + / donors tested (peptide), second 'Pool Stimulated' section (from r296), 12 donors tested
[6] = single peptide, second 'Pool Stimulated' section (from r296), 12 donors tested

| Substance | IFNg Peptide + (donors positive to the peptide) ([1]; Patients Summary, PD patients) | IFNg Avg SFC [1, 3] [SFC] | IFNg Response Frequency [1, 3] [%] | IFNg Total SFC [1, 3] [SFC] | IL-g Peptide + (donors positive to the peptide) ([2]; Patients Summary, PD patients) | IL-g Response Frequency [2, 3] [%] | IL-g Total SFC [2, 3] [SFC] | Pool + [1] | IFNg Peptide + [1, 4] | IFNg Response Frequency [1, 5] [%] | IFNg Total SFC [1, 6] [SFC] | IL-g Peptide + [2, 4] | IL-g Response Frequency [2, 5] [%] | IL-g Total SFC [2, 6] [SFC] | IFNg Avg SFC [1, 6] [SFC] | IL-g Avg SFC [2, 6] [SFC] |
| --- | --- | --- | --- | --- | --- | --- | --- | --- | --- | --- | --- | --- | --- | --- | --- | --- |
| 3521.0045 (KTKKGVVHGV; listed as Homo sapiens) | 1 | 133 | 17 | 133 | 0 | 0 | 0 | – | – | – | – | – | – | – | – | – |
| 3521.0047 (IAAATGFVKK; listed as Homo sapiens) | 0 | – | 0 | 0 | 0 | 0 | 0 | 0 | 0 | 0 | 0 | 0 | 0 | 0 | – | – |
| 3521.0048 (EQVTNVGGAV; listed as Homo sapiens) | 0 | – | 0 | 0 | 0 | 0 | 0 | 0 | 0 | 0 | 0 | 0 | 0 | 0 | – | – |
| 3521.0049 (APQEGILEDM; listed as Homo sapiens) | 0 | – | 0 | 0 | 0 | 0 | 0 | 0 | 0 | 0 | 0 | 0 | 0 | 0 | – | – |
| 3521.0051 (EEGAPQEGIL; listed as Homo sapiens) | 1 | 427 | 25 | 427 | 0 | 0 | 0 | 1 | 1 | 50 | 554 | 1 | 50 | 1028 | 554 | 1028 |
| 3521.0054 (MPVDPDNEAY; listed as Homo sapiens) | 0 | – | 0 | 0 | 0 | 0 | 0 | 0 | 0 | 0 | – | 1 | 50 | 58 | – | 58 |
| 3521.0055 (QEGILEDMPV; listed as Homo sapiens) | 0 | – | 0 | 0 | 0 | 0 | 0 | 0 | 0 | 0 | – | 1 | 50 | 58 | – | 58 |
